Calls of active or inactive are those of the source. No rule for the calls is given here. Bounds are passed on as bounds.

The record followed here is PubChem BioAssay AID1552 (Sanford-Burnham Center for Chemical Genomics, 2009).

The target in the assay is Ubiquitin-conjugating enzyme E2 N (Homo sapiens) (UniProt P61088). The experiment in a line: UBE2N binders by NMR, biophysical, purified protein (AID 1552). The note with it: NMR binding to purified UBE2N.
Ubiquitin-conjugating enzyme E2 N (Homo sapiens), sequence (P61088 whole entry, looked up): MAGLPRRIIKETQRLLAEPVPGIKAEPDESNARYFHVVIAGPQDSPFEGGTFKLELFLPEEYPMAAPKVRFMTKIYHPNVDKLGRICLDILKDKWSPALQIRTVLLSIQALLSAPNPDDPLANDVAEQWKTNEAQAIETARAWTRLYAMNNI

What is called Kd is the constant that tells how readily two partners part at equilibrium. As for `Cc1cc(C)n(CC(=O)NC2CCCCC2)n1`, the Kd is > 4 mM (inactive).

On to `O=C1C2CC=CCC2C(=O)N1c1ccccc1` (stereo not given), for which the Kd was > 4 mM (inactive).

Turning to `CC(C)CCCC(C)[C@H]1CCC2C3CC=C4CC(=O)CC[C@]4(C)C3CC[C@@]21C` (stereo not given in full), the Kd was > 4 mM (inactive).

On to `O=C(Nc1ccon1)c1ccc(Cl)s1`, for which the Kd was > 4 mM (inactive).

As to `C[C@]12CCC3C(CC[C@H]4C[C@@H](O)CC[C@]34C)C1CCC2=O` (stereo not given in full), the Kd is > 4 mM (inactive).

As to `COc1ccc(-c2c(OC)c3c(OC)c4c(cc3oc2=O)OC(C)(C)C=C4)cc1`, the Kd was > 4 mM (inactive).

Take `COc1cc2[nH]c(=S)n(C)c(=O)c2cc1OC`: the Kd is > 4 mM (inactive).

Consider `Cc1csc2nc(=O)c3ccccc3n12`, for which the Kd was > 4 mM (inactive).

Turning to `CC1(C)O[C@H]2[C@H](O)C[C@](O)(C(N)=O)C[C@H]2O1`, the Kd was > 4 mM (inactive).

`COC(=O)CSc1n[nH]c(N)n1`: the Kd is > 4 mM (inactive).

Take `CCOC(=O)c1snnc1-c1ccccc1`: the Kd is > 4 mM (inactive).

With `Cc1cc(=O)n2[nH]c(N)nc2n1`, the Kd was > 4 mM (inactive).

For `Oc1cccc2[nH]ccc12`, the Kd is > 4 mM (inactive).

For the molecule `COc1cc(O)c(C)c(O)c1`, the Kd is > 4 mM (inactive).

For the molecule `COc1ccc(NC(=O)c2ccc[n+]([O-])c2)cc1`, the Kd is > 4 mM (inactive).

Consider `Cc1ccc(C)n1CCN1CCNCC1`, for which the Kd is > 4 mM (inactive).

As for `Cc1cc(NC(=O)c2cc(C)on2)no1`, the Kd is > 4 mM (inactive).

As to `Nc1ncnc2c1ncn2C1C[C@H](O)[C@@H](CO)O1` (stereo not given in full), the Kd is > 4 mM (inactive).

Regarding `CC(C)c1c(O)c(-c2cc3c(c(C(C)C)c2O)CCC2C(C)(C)CCC[C@]32C)cc2c1CCC1C(C)(C)CCC[C@]21C` (stereo not given in full), the Kd is > 4 mM (inactive).

As for `Cc1cccc(C(C)C)c1NC(=O)c1cccnc1`, the Kd was > 4 mM (inactive).

Consider `Nc1nc(CSc2ncn(-c3ccccc3)n2)cs1`, for which the Kd is > 4 mM (inactive).

Take `Cn1c(=O)c2[nH]cnc2n(C)c1=O`: the Kd was > 4 mM (inactive).

Consider `O=C(Nc1cnccn1)c1cccnc1`, for which the Kd was > 4 mM (inactive).

As for `CSc1nnnn1-c1cccc(O)c1`, the Kd is > 4 mM (inactive).

Take `NC(=O)C(=O)Nc1nc(-c2ccccc2)cs1`: the Kd is > 4 mM (inactive).

For the molecule `CCn1c(-c2ccccc2)n[nH]c1=S`, the Kd is > 4 mM (inactive).

Consider `O=C(NC1=NCCS1)c1ccc(Cl)s1`, for which the Kd is > 4 mM (inactive).

With `COc1cc(C)nc(N(CCO)CCO)n1`, the Kd is > 4 mM (inactive).

In the case of `O=C1NC(=S)NC(=O)C1=Cc1ccncc1`, the Kd is > 4 mM (inactive).

As for `COC(=O)c1cn(C(=O)OC)c2ccccc12`, the Kd is > 4 mM (inactive).

In the case of `CC(=O)c1c(C)nc(-c2ccc(F)cc2)n1O`, the Kd was > 4 mM (inactive).

On to `Cn1cc(Cl)c(C(=O)Nc2ccncc2)n1`, for which the Kd is > 4 mM (inactive).

Consider `CN1CCC(O)N1C(=O)c1ccccc1O` (stereo not given), for which the Kd is > 4 mM (inactive).

With `COc1ccc(-c2cc(=O)c3c(O)c(OC)c(O[C@H]4O[C@H](CO[C@@H]5O[C@@H](C)[C@H](O)[C@@H](O)[C@H]5O)[C@@H](O)[C@H](O)[C@H]4O)cc3o2)cc1`, the Kd is > 4 mM (inactive).

In the case of `COc1ccc2c(c1)OC/C(=C/c1ccc(OC)c(OC)c1)C2=O`, the Kd was > 4 mM (inactive).

In the case of `CNC(=O)COc1cccc2c1CCNC2=O`, the Kd was > 4 mM (inactive).

With `CCCSc1nnc2[nH]c(=O)cc(N)n12`, the Kd is > 4 mM (inactive).

Regarding `O=C(Nc1cccnc1)N1CCOCC1`, the Kd was > 4 mM (inactive).

Consider `O=c1[nH]cc(NC(=S)N2CCOCC2)c(=O)[nH]1`, for which the Kd was > 4 mM (inactive).

As for `NC(CC(=O)O)C(=O)Nc1ccc(Cl)cc1` (stereo not given), the Kd was > 4 mM (inactive).

On to `CN(C)c1ccc2c(=O)[nH][nH]c(=O)c2c1`, for which the Kd is > 4 mM (inactive).

As to `COC1C(O)C(O)C(O)[C@@H](O)C1O` (stereo not given in full), the Kd was > 4 mM (inactive).

In the case of `Cc1c(C)[n+](=O)c(-c2cccs2)c(C)n1[O-]`, the Kd is > 4 mM (inactive).

For the molecule `Cn1c(=O)c2c(ncn2CCN)n(C)c1=O`, the Kd is > 4 mM (inactive).

For the molecule `CCOC(=O)C1CCN(Cc2ccccc2)CC1=O` (stereo not given), the Kd was > 4 mM (inactive).

For the molecule `Cn1c(NCc2ccccc2O)nc2ccccc21`, the Kd is > 4 mM (inactive).

As for `Cc1csc(SCC(=O)N2CCCC2)n1`, the Kd is > 4 mM (inactive).

For `O=C(NCC1CCNCC1)c1ccncc1`, the Kd is > 4 mM (inactive).

Regarding `NC(=S)N1CCC(c2ccccc2)=N1`, the Kd is > 4 mM (inactive).

For `Fc1ccc(CN2CCCNCC2)cc1`, the Kd was > 4 mM (inactive).

In the case of `CNC(=S)Nc1ccc(OC)cc1C`, the Kd is > 4 mM (inactive).

In the case of `NS(=O)(=O)c1ccc(NC(=O)C2CC2)cc1`, the Kd was > 4 mM (inactive).

In the case of `O=C1COc2ccccc2C(=O)N1`, the Kd was > 4 mM (inactive).

For `Cc1nc2cc(NC(=O)Nc3nccs3)ccc2n1C`, the Kd is > 4 mM (inactive).

`Cc1nc(-c2cccc(N)c2)cs1`: the Kd is > 4 mM (inactive).

Consider `Cn1nnc2cc(C(=O)Nc3cccnc3)ccc21`, for which the Kd was > 4 mM (inactive).

With `Cc1ccc(C(=O)NCCO)c(Cl)c1`, the Kd is > 4 mM (inactive).

Consider `C=CCc1cc(C(=O)N2CCCCC2)ccc1O`, for which the Kd was > 4 mM (inactive).

As to `Cc1cccn2cc(CNc3ccccc3)nc12`, the Kd is > 4 mM (inactive).

In the case of `COc1ccc(C(=O)/C=C/c2ccccc2)cc1`, the Kd is > 4 mM (inactive).

With `COc1ccc(N2C(=O)CCC2=O)c(OC)c1`, the Kd was > 4 mM (inactive).

Take `CC(C)=CCc1c(O)cc(C)oc1=O`: the Kd is > 4 mM (inactive).

Regarding `O=C1CSC(=O)N1CN1CCCC1`, the Kd was > 4 mM (inactive).

In the case of `O=c1c(O)cccc2cc(O)c(O)c(O)c12`, the Kd is > 4 mM (inactive).

As to `Cc1[nH]c2ccccc2c1C(=O)CSc1ncn[nH]1`, the Kd is > 4 mM (inactive).

`NC12CC3CC(C1)CC(O)(C3)C2`: the Kd was > 4 mM (inactive).

For `COC(=O)c1cc2cc(N)ccc2s1`, the Kd is > 4 mM (inactive).

On to `CC12CCCC(O)(C1)C1CC(C)(C)C1CC2` (stereo not given), for which the Kd was > 4 mM (inactive).

With `Cc1c(/C=N\n2cnnc2)c2ccccc2n1C`, the Kd is > 4 mM (inactive).

With `CSc1ccc(/C=c2\sc3ncnn3c2=O)cc1`, the Kd is > 4 mM (inactive).

`Nc1nc(N)nc(N2C(=O)c3ccccc3C2=O)n1`: the Kd was > 4 mM (inactive).

In the case of `COC(=O)NNc1ncnc(N)c1[N+](=O)[O-]`, the Kd is > 4 mM (inactive).

As to `OCC1CCN(c2ncccn2)CC1`, the Kd is > 4 mM (inactive).

Take `NCc1csc2ccccc12`: the Kd is > 4 mM (inactive).

For `c1ccc(-c2n[nH]c(-c3ccccn3)n2)nc1`, the Kd was > 4 mM (inactive).

With `CN(C)C(=O)Nc1ccc(F)cc1F`, the Kd is > 4 mM (inactive).

Consider `CC(=O)c1c(O)cc(O)cc1O`, for which the Kd is > 4 mM (inactive).

In the case of `O=C(Nn1c(=S)[nH]c2ccccc2c1=O)c1ccncc1`, the Kd is > 4 mM (inactive).

`NC(=O)c1cccc(Cl)n1`: the Kd was > 4 mM (inactive).

Take `O=c1cc(-c2ccc(O)cc2)[nH]c(=S)[nH]1`: the Kd was > 4 mM (inactive).

Turning to `Cn1nnc2cc(C(=O)NCc3ccco3)ccc21`, the Kd was > 4 mM (inactive).

As to `O=C1CNCc2[nH]c3ccccc3c2N1c1ccccc1`, the Kd is > 4 mM (inactive).

`C(=N\c1nccs1)/c1cccnc1`: the Kd is > 4 mM (inactive).

In the case of `COC1(C)CCC2OC2(C)CCC2C1CC2(C)C` (stereo not given), the Kd is > 4 mM (inactive).

Consider `C=C[C@@](C)(O)CCC1C(=C)C[C@H](OC(C)=O)C2C(C)(C)CCCC12C` (stereo not given in full), for which the Kd was > 4 mM (inactive).

Turning to `NC(=O)C1(S(=O)(=O)c2ccccc2)CC1`, the Kd was > 4 mM (inactive).

On to `O=C(c1cc2ccccc2o1)N1CCCCCC1`, for which the Kd was > 4 mM (inactive).

On to `CC1(C)CC23C(=O)CCC(O)C2(C)CCC13` (stereo not given), for which the Kd was > 4 mM (inactive).

In the case of `COc1ccc(-c2nc3nc(C)cc(C)n3n2)cc1`, the Kd was > 4 mM (inactive).

Regarding `C/C1=C/CC(C)(C)/C=C/C/C(C)=C/CC1`, the Kd is > 4 mM (inactive).

As to `COc1cc2cc3c4cc(OC)c(OC)cc4cc[n+]3c(C)c2cc1OC`, the Kd was > 4 mM (inactive).

Take `COc1cc2c(cc1OC)C(C)NCC2` (stereo not given): the Kd was > 4 mM (inactive).

With `NC(=O)c1cc2c(n(-c3ccccc3)c1=O)CCCC2=O`, the Kd was > 4 mM (inactive).

For the molecule `O=c1cc(-c2cc(O)c(O)c(O)c2)oc2cc(O)cc(O)c12`, the Kd was > 4 mM (inactive).

Consider `O=C(Nc1nncs1)c1c(F)c(F)c(F)c(F)c1F`, for which the Kd is > 4 mM (inactive).

As for `CCC(C)C(=O)c1c(O)c(C)c2oc3c(C)c(O)c(C(=O)C(C)CC)c(O)c3c2c1O` (stereo not given), the Kd is > 4 mM (inactive).

Turning to `Cc1cc(=O)oc2cc3c(cc12)OCCO3`, the Kd is > 4 mM (inactive).

Consider `Cn1nc(-c2ccccc2)cc1N`, for which the Kd is > 4 mM (inactive).

Consider `CCCCCC1C(=O)CCC1CC(=O)OC` (stereo not given), for which the Kd was > 4 mM (inactive).

Consider `c1ccc2[nH]c(NCCN3CCOCC3)nc2c1`, for which the Kd was > 4 mM (inactive).

`O=C(O)CCC1=C2c3ccccc3CCN2C(=O)CC1`: the Kd was > 4 mM (inactive).

Turning to `Nc1nc2c3ccccc3nc(Cc3ccccc3)n2n1`, the Kd is > 4 mM (inactive).

As for `COc1ccc(NC(=O)CSc2nccc(=O)[nH]2)cc1`, the Kd was > 4 mM (inactive).

Regarding `CC(=O)Oc1cc(-c2coc3cc(OC(C)=O)c(OC(C)=O)c(OC(C)=O)c3c2=O)cc(OC(C)=O)c1OC(C)=O`, the Kd is > 4 mM (inactive).

Regarding `O=C(NCN1CCOCC1)c1cnccn1`, the Kd is > 4 mM (inactive).
